For this data set, the system named is normal cells (CHO, L929, CCD-18Co). In words: Cell viability assay (CCK-8), normal cells. Format: cell-based. Conditions: 24 h, 7k: CHO, SR-1: CCD-18Co. The protocol: Chinese hamster ovary CHO cells, mouse fibroblast L929 cells, normal colon CCD18-Co cells, monkey kidney fibroblast COS-7 cells, colorectal cancer cells including HCT-116, RKO, SW480, SW620, CT26, and MC38 cells were purchased from ATCC (American Type Culture Collection). CHO, L929, Cos-7, and all cancer cells were maintained in RPMI 1640 or DMEM supplemented with 10% FBS (Gibco FBS; Thermo Fisher Scientific, Hanover Park, IL, USA) and 1% streptomycin/penicillin. CCD18-Co cells were cultured in high-glucose Dulbecco modified Eagle medium containing 10% FBS and 1% streptomycin/penicillin. All cells were grown in 5% CO2 at 37 °C. Mycoplasma testing was regularly performed every month using the BioMycoX Mycoplasma PCR Detection Kit (CellSafe, Yongin, Republic of Korea).
Cell viability was analyzed using a Cell Counting Kit-8 (Dojindo molecular technologies, Rockville, MD, USA). Cells were seeded in 96-well plates and treated with different concentrations of 7k. At the indicated time points, CCK-8 (10 μL/well) reagents were added to the cells, followed by further incubation at 37 °C for 90 min. The absorbance at 450 nm was measured using a plate reader (BioTek instruments, Winooski, VT, USA).

SMILES strings stand for the structures.

With `CC(C)n1cc2nc(-c3cc(F)cc(F)c3)nc(NCCc3c[nH]c4ccccc34)c2n1` [Compound 7k, N-(2-(1H-indol-3-yl)ethyl)-5-(3,5-difluorophenyl)-2-isopropyl-2H-pyrazolo [4,3-d]pyrimidin-7-amine], the “cell viability of normal cells” value is given as “few antiproliferative effects”.

Source of the values: PMC12567141, “Design, Synthesis and Biological Evaluation of Pyrazolopyrimidine Derivatives as Aryl Hydrocarbon Receptor Antagonists for Colorectal Cancer Immunotherapy” (Pharmaceutics, 2025).
